Experimental data published in patent publication US10633547B2, “Method for reducing microbial attack of industrial products” (Thor GmbH, priority 2016, dated 2020).

Legend:
[1] = decomposition of 2-methylisothiazolin-3-one in aqueous dispersion paint using sodium thiosulfate; type: physicochemical
Description: However, it is disadvantageous that, according to the described method, said isothiazolinones, particularly MIT, are not quantitatively and/or irreversibly destroyed, as a result of which they are still contained in the products and reaction products and still can cause problems for people prone to allergic reactions, and/or cause contact dermatitis or aerogenic contact dermatitis in highly sensitive people.

[2] = test system: microorganisms introduced by the individual components of the paint; experiment: microbiological testing of dispersion paint preserved with 5-chloro-2-methylisothiazolin-3-one; type: cell-based; settings: 20 ppm 5-chloro-2-methylisothiazolin-3-one with <1 wt % 2-methylisothiazolin-3-one; water-based dispersion paint; growth detectable in individual components
Method: 20 ppm 5-chloro-2-methylisothiazolin-3-one, with a content of 2-methylisothiazolin-3-one of <1 wt %, was added to a preservative-free styrene acrylate dispersion. The styrene acrylate dispersion preserved in this manner was then used to produce a water-based dispersion paint. The paint produced had the following composition: • 25.7 wt % water • 0.2 wt % acrylate-based wetting and dispersion agents • 0.2 wt % mineral oil-based defoamer • 2.0 wt % water softener (sodium polyphosphate) • 0.2 wt % ammonia • 4.0 wt % titanium oxide (pigment) • 51.0 wt % calcium carbonate (filler) • 5.0 wt % talcum (filler) • 0.4 wt % cellulose ether • 2.0 wt % organic solvent for lowering the minimum film-forming temperature • 9.0 wt % of the styrene acrylate dispersion preserved with 20 ppm 5-chloro-2-methylisothiazolin-3-one • 20 ppm 5-chloro-2-methylisothiazolin-3-one, with a content of 2-methylisothiazolin-3-one of <1 wt %

[3] = decomposition of 5-chloro-2-methylisothiazolin-3-one in dispersion paint by cysteine, HPLC; type: physicochemical; settings: 3 hours after adding 50 ppm cysteine, based on the dispersion paint
Description: In order to produce a paint, which is harmless for allergy suffers with respect to the 5-chloro-2-methylisothiazolin-3-one and 2-methylisothiazolin-3-one, from the dispersion paint, which contained significant quantities of 5-chloro-2-methylisothiazolin-3-one, these isothiazolin-3-ones were decomposed by adding 50 ppm cysteine, based on the dispersion paint.

[4] = test system: newly introduced microorganisms; experiment: shelf life of dispersion paint after post-preservation; settings: 50 ppm 2-methyl-1,2-benzisothiazolin-3-one and 10 ppm zinc oxide added after decomposition of CMIT by cysteine
Method: The paint produced in this manner was now free of microorganisms through the use of the effective broad-spectrum biocide 5-chloro-2-methylisothiazolin-3-one, but susceptible to newly introduced microorganisms, which can infiltrate the paint during storage, due to the decomposition of the biocide by cysteine.
In order to protect the paint from such a microbial attack during storage, 50 ppm 2-methyl-1,2-benzisothiazolin-3-one and 10 ppm zinc oxide, based on the dispersion paint, were added to the dispersion paint for post-preservation.

Cn1sccc1=O [2-methylisothiazolin-3-one]
destruction of 2-methylisothiazolin-3-one using sodium thiosulfate [1]: could not be quantitatively or irreversibly destroyed

Cn1sc(Cl)cc1=O [5-chloro-2-methylisothiazolin-3-one]
microbial growth in the dispersion paint [2]: no microbial growth was found
5-chloro-2-methylisothiazolin-3-one detectable in the dispersion paint by HPLC [3]: no more 5-chloro-2-methylisothiazolin-3-one was detectable

Cn1sc2ccccc2c1=O [2-methyl-1,2-benzisothiazolin-3-one]
shelf life of the paint [4]: at least 6 months
